Patent US11224223B2, “Feeding deterrence of pests such as Hemiptera, Lepidoptera and Coleoptera” (BEDOUKIAN RESEARCH, INC., priority 2012, dated 2022)

Columns and labels:
Type in all cases: in vivo
Codling Moth larvae = assay: Repellency as feeding deterrence and mortality in Codling Moth larvae on treated media; settings: for Repellency at 24 hours: first instar larva, control 8%
Protocol: Another test was designed to measure the repellency as feeding deterrence in Codling Moth larvae. The treatment was applied to the surface of a proprietary laboratory media in a tray with wells for each compound. The media was allowed to dry for 30-60 minutes so that larvae were not exposed to it as a liquid. One first instar codling moth larva was then placed on the treated media. The cover film was placed on the tray to prevent escapes. Ten additional replicates treated with a 57% ethanol solution were prepared to serve as controls. […] After the 24 hour reading, the larvae were extracted from the media to record any mortality.
Mortality observations were also made for the above protocol. The control was the 57% ethanol:43% water solution.

Plodia interpunctella = assay: Feeding repellent assay for Indian meal moth larva on treated rice; settings: 10% compound in a 5% Ethanol:95% water solution, third instar larvae, 1 week
Protocol: (§1) Feeding Repellent Assay for Indian Meal Moth Larva One gram of rice is weighed and treated with 2% by weight of each test chemical or ethanol as a control for each treatment and replicate. The grains are allowed to dry and then weighed again. Treated or control rice grains are placed in a petri dish. Third instar larvae are starved for 8 h and gently introduced into the center of each compartment. 20 larva are screened per treatment, and each experiment is repeated three times. The weight of rice grains is measured again after 1 week. The selective antifeeding rate (%) formula is [(C−T)/(C+T)]×100, and the non-selective antifeeding rate (%) formula is [(C−T)/C)]×100, where C and T are the areas consumed by the control and treated leaf disks, respectively.

sharpshooters = assay: Leafhopper repellency on citrus choice assays; settings: 3% compound; citrus seedlings; 100 sharpshooters per cage; control 50/50
From the text: (§2) Leafhopper Repellency on Citrus Choice Assays Citrus seedlings are sprayed with either a 3% solution of repellent chemical in a 5%:95% ETOH:Water or only 5%:95% ETOH:Water as a control. Two seedlings are placed in a screen cage, either a treatment vs control tree or a control vs control tree. 100 sharpshooters are released into each cage. The number of sharpshooters choosing each leaf is counted for both choice tests. The number of sharpshooters choosing each treatment is compared to the control to determine if there is a repellent effect.

[1] = test system: Leptinotarsa decemlineata-Colorado Potatoe Beetles; assay: Choice feeding assay on potato leaf disks; settings: 3% compound, larvae, 24 h
Protocol: For choice feeding assays, 3% alcohol solutions of the tested compounds are prepared. Disks (4.0 cm in diameter) are cut from potato leaves and are dipped in the test solutions or alcohol alone as a control. After the complete evaporation of the solvent, the disks are offered to 10 larvae. Control and treated disks are placed at alternate corners in Petri dishes (150 by 20 mm) lined with moistened filter paper (choice test). All dishes are placed in an incubator. Four replicates and 40 larva are used for each chemical. In each replicate, the insects are allowed to feed ad libitum for 24 h at 24 C under a 16:8 (L:D) photoperiod. After 24 h, the remaining uneaten area of each potato leaf disk is measured using a scanner and software. The selective antifeeding rate (%) formula is [(C−T)/(C+T)]×100, and the non-selective antifeeding rate (%) formula is [(C−T)/C)]×100, where C and T are the areas consumed by the control and treated leaf disks, respectively.

psyllids = assay: Psyllid repellency on potato choice assays; settings: 3% compound; potato plants; 100 psyllids per cage; control 50/50
From the text: Psyllid Repellency on Potato Choice Assays
as §2, with “Potato plants” for “Leafhopper Repellency on Citrus Choice Assays Citrus seedlings”, “plants” for “seedlings”, “tree,” for “tree.”, “psyllids” for “sharpshooters”

Sitostroga cerealella = assay: Feeding repellent assay for Angoumois larva on treated rice; settings: 10% compound in a 5% Ethanol:95% water solution, third instar larvae, 1 week
Protocol: Feeding Repellent Assay for Angoumois Larva
as §1, with “One” for “Feeding Repellent Assay for Indian Meal Moth Larva One”

Tineola spp. = assay: Clothes moth feeding damage on silk fabric, choice test; settings: 3% compound; silk disks; late instar larvae; 24 hours; control 50/50
Protocol: For feeding assays, 3% alcohol solutions of the tested compounds are prepared. Disks (2.0 cm in diameter) of undyed silk fabric are dipped in the test solutions or alcohol alone as a control. After the complete evaporation of the solvent, the disks are presented in a choice test to 10 late instar Tineola spp. larvae. All dishes are placed in an incubator in the dark. Four replicates are used for each chemical. After 24 hours, the number of individuals choosing to feed on each disk are counted.

Aphis gossypii = assay: Melon aphid repellency on leaf choice assays; settings: 3% compound in a Triton X:Water solution; n=100; control 50/50
From the text: Melon Aphid Repellency on Leaf Choice Assays Aphis gossypii are maintained on squash plants. Individual aphids (n=100) are given the choice between leaves with and without repellent treatments. A separate group of aphids are given a choice between untreated vs. untreated leaves as a control. The number of aphids choosing each leaf is counted both choice tests. The number of aphids choosing each treatment is compared to the control to determine the repellent effect.

[2] = test system: Euschistus heros-Neotropical Brown Stink Bugs; assay: Stink bug feeding damage on soybean pods; settings: 3% compound, soybean plants at R6 stage, 48 hours
Protocol: To compare the feeding/resting preference of stink bug adults for different plant parts, 10 pots with soybean plants at the R6 (pod-filling) stage of development are used. 5 pots of soybeans are sprayed with 3% of treatment in a 2% Triton X:water solution and 5 pots of soybean are treated with 2% Triton X:water solution as controls. Thirty stink bugs are placed individually in each cage and allowed to feed for 48 hours. Insects are removed and plant parts are collected for visual analysis of damage. Feeding damage on the pods is counted for both treatments. The selective antifeeding rate (%) formula is [(C−T)/(C+T)]×100, and the non-selective antifeeding rate (%) formula is [(C−T)/C)]×100, where C and T are the numbers of feeding damages on the control and treated plant pods, respectively.

Popillia japonica = assay: Japanese beetle feeding damage on basil; settings: 3% compound; basil leaf disks; adult beetle; 24 h
Protocol: Japanese Beetle Feeding Damage on Basil For choice feeding assays, 3% alcohol solutions of the tested compounds are prepared. Disks (4.0 cm in diameter) are cut from basil leaves and are dipped in the test solutions or alcohol alone as a control. After the complete evaporation of the solvent, the disks are offered to 1 adult beetle. All dishes are placed in an incubator. Four replicates are used for each chemical. After 24 h, the remaining uneaten area of each basil leaf disk is measured using a scanner and software. The selective antifeeding rate (%) formula is [(C−T)/(C+T)]×100, and the non-selective antifeeding rate (%) formula is [(C−T)/C)]×100, where C and T are the areas consumed by the control and treated leaf disks, respectively.

Dermestid spp. = assay: Dermestid beetle feeding damage on silk fabric; settings: 3% compound; undyed silk disks; late instar larvae; 1 week
Protocol: Dermestid Beetle Feeding Damage on Silk Fabric
For feeding assays, 3% alcohol solutions of the tested compounds are prepared. Disks (4.0 cm in diameter) of undyed silk fabric are dipped in the test solutions or alcohol alone as a control. After the complete evaporation of the solvent, the disks are offered to 10 late instar larvae. All dishes are placed in an incubator. Four replicates are used for each chemical. After 1 week, the remaining uneaten area of each silk disk is measured using a scanner and software. The selective antifeeding rate (%) formula is [(C−T)/(C+T)]×100, and the non-selective antifeeding rate (%) formula is [(C−T)/C)]×100, where C and T are the areas consumed by the control and treated silk disks, respectively.

[3] = test system: brown marmorated stink bugs (BMSB); assay: Repellency as feeding deterrence in brown marmorated stink bugs, treated filter paper with green bean; settings: control 38%
Protocol: A test was designed to measure the repellency as feeding deterrence in brown marmorated stink bugs (BMSB). Five replicates of 5 BMSBs were introduced into test arenas, containing one 60 mm×15 mm Petri dish with treated filter papers in which a food source (green bean) was attached, at the start of the test. The small Petri dishes containing the treated filter paper and food source were covered with a fitted Petri dish lid in between observation times, and were removed 5 minutes before each observation time to prevent stink bugs from feeding until sated. The distribution of the BMSBs was observed and documented hourly for 5 hours.

[4] = compound at 3.5% in a 57% Ethanol:43% water solution
[5] = compound at 2.5% in a 57% Ethanol:43% water solution

CCCCCCCC1CC(=O)C=C(C)C1 (centres unmarked) [3-Methyl-5-Heptyl-2-Cyclohexenone]
Increased Mortality over Control Mortality at 24 hours (Codling Moth larvae; [4]): 93%
Repellency at 24 hours (Codling Moth larvae; [4]): 95%

CCCC1CC(C)=CC(O)C1 (centres unmarked) [3-Methyl-5-Propyl-2-Cyclohexenol]
Increased Mortality over Control Mortality at 24 hours (Codling Moth larvae; [4]): 9%
Repellency at 24 hours (Codling Moth larvae; [4]): 30%

CC(C)=CCC/C(C)=C/CC1CCCC1O (centres unmarked) [Apritol]
% Antifeedent Activity (Plodia interpunctella): 70%
Number of Psyllids Choosing each Treatment: Treated (sharpshooters): 30
Number of Psyllids Choosing each Treatment: Untreated (sharpshooters): 70
% Repellency [1]: 15%
Number of Psyllids Choosing each Treatment: Treated (psyllids): 30
Number of Psyllids Choosing each Treatment: Untreated (psyllids): 70
% Antifeedent Activity (Sitostroga cerealella): 70%
Individuals choosing to feed on each disk: Treated (Tineola spp.): 20
Individuals choosing to feed on each disk: Untreated (Tineola spp.): 80
Number of Aphids Choosing each Treatment: Treated (Aphis gossypii): 30
Number of Aphids Choosing each Treatment: Untreated (Aphis gossypii): 70
% Antifeedent Activity [2]: 60%
% Repellency (Popillia japonica): 15%
% Repellency (Dermestid spp.): 15%

CC(C)=CCC/C(C)=C/CC1CCCC1=O (centres unmarked) [Apritone, apritone]
% Antifeedent Activity (Plodia interpunctella): 70%
Number of Psyllids Choosing each Treatment: Treated (sharpshooters): 30
Number of Psyllids Choosing each Treatment: Untreated (sharpshooters): 70
% Repellency [1]: 15%
Number of Psyllids Choosing each Treatment: Treated (psyllids): 30
Number of Psyllids Choosing each Treatment: Untreated (psyllids): 70
% Antifeedent Activity (Sitostroga cerealella): 70%
Individuals choosing to feed on each disk: Treated (Tineola spp.): 20
Individuals choosing to feed on each disk: Untreated (Tineola spp.): 80
Number of Aphids Choosing each Treatment: Treated (Aphis gossypii): 30
Number of Aphids Choosing each Treatment: Untreated (Aphis gossypii): 70
% Antifeedent Activity [2]: 60%
% Repellency (Popillia japonica): 15%
% Repellency (Dermestid spp.): 15%

CCCCCCCC1CCCC(=O)O1 (centres unmarked) [Delta-dodecalactone]
% Antifeedent Activity (Plodia interpunctella): 70%
Number of Psyllids Choosing each Treatment: Treated (sharpshooters): 20
Number of Psyllids Choosing each Treatment: Untreated (sharpshooters): 80
% Repellency [1]: 40%
Number of Psyllids Choosing each Treatment: Treated (psyllids): 20
Number of Psyllids Choosing each Treatment: Untreated (psyllids): 80
% Antifeedent Activity (Sitostroga cerealella): 70%
Individuals choosing to feed on each disk: Treated (Tineola spp.): 10
Individuals choosing to feed on each disk: Untreated (Tineola spp.): 90
Number of Aphids Choosing each Treatment: Treated (Aphis gossypii): 20
Number of Aphids Choosing each Treatment: Untreated (Aphis gossypii): 80
% Antifeedent Activity [2]: 80%
% Repellency (Popillia japonica): 40%
% Repellency (Dermestid spp.): 40%

CCCCCCCCC1CCC(=O)O1 (centres unmarked) [Gamma-Dodecalactone]
Repellency averaged over 5 hours [3, 4]: 82%
Repellency at 24 hours (Codling Moth larvae; [4]): 46%
Increased Mortality over Control Mortality at 24 hours (Codling Moth larvae; in vivo): 37%

CCCCCCCCCC1(C)CCC(=O)O1 (centres unmarked) [Gamma-Methyl Tridecalactone]
Repellency averaged over 5 hours [3, 4]: 67%

CCCCCC1C(=O)CCC1CC(=O)OC (stereo not drawn) [Methyl Dihydrojasmonate - High epi, Methyl Dihydrojasmonate]
Repellency averaged over 5 hours [3, 5]: 39%

CCCCCC1C(=O)CCC1CC(=O)OC (stereo not drawn) [Methyl Dihydrojasmonate - Low epi, Methyl Dihydrojasmonate]
Repellency averaged over 5 hours [3, 5]: 58%

CC1CCC(C(C)(C)O)C(O)C1 (centres unmarked) [Para-Menthanediol, p-Menthane-3,8-diol, reference compound]
Repellency averaged over 5 hours [3, 4]: 91%
Increased Mortality over Control Mortality at 24 hours (Codling Moth larvae; [4]): 3%
Repellency at 24 hours (Codling Moth larvae; [4]): 10%

CCCCCC1C(=O)CCC1CC(=O)OCC=C(C)C (centres unmarked) [Prenyl Dihydrojasmonate]
Increased Mortality over Control Mortality at 24 hours (Codling Moth larvae; [4]): 34%
Repellency at 24 hours (Codling Moth larvae; [4]): 79%

CCCCCC1C(=O)CCC1CC(=O)OCCC (stereo not drawn) [Propyl Dihydrojasmonate - High epi, Propyl Dihydrojasmonate]
Repellency averaged over 5 hours [3, 5]: 49%

CCCCCC1C(=O)CCC1CC(=O)OCCC (stereo not drawn) [Propyl Dihydrojasmonate - Low epi, Propyl Dihydrojasmonate]
Repellency averaged over 5 hours [3, 5]: 74%
